Our source for the IC50 values is US20230234943A1, “TREX1 INHIBITORS AND USES THEREOF” (Tempest Therapeutics, Inc., priority 2020, published 2023).

This assay has as its target T1, Human TREX1 enzyme (amino acids 1-242) (Homo sapiens, UniProt Q9NSU2).
T1 construct: Human TREX1 enzyme (amino acids 1-242)
T1 sequence (Q9NSU2 1-242): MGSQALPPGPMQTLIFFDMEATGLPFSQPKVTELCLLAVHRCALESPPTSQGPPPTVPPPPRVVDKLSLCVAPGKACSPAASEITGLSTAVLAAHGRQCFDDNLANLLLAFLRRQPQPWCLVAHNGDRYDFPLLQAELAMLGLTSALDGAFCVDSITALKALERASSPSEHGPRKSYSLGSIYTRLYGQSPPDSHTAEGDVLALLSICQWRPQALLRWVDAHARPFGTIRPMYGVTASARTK
In words: Human TREX1 enzymatic assay with dsDNA native oligonucleotide (Picogreen fluorescence). It counts as biochemical. As to conditions: 2 mM dithiothreitol in assay buffer; 50 nM dsDNA oligonucleotide; 30 min preincubation at 25° C.; read-out: TREX1/Human + DTT IC50 AVG. The method in brief: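 Remaining dsDNA quantified by Picogreen fluorescence after EDTA quench, with no-enzyme and DMSO wells as controls. Reactions used 50 nM annealed oligonucleotide for 5–15 min at 25 °C, after a 30 min compound–enzyme preincubation (0.8–0.16 nM TREX1; 2% DMSO; pH 7.7 Tris, 5 mM MgCl2).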
With `COc1cc(-c2nc3cc(N4CCOCC4=O)ccc3n2C2(C)COC2)c(F)c(O)c1O` [Example 275, 4-(2-(2-fluoro-3,4-dihydroxy-5-methoxyphenyl)-1-(3-methyloxetan-3-yl)-1H-benzo[d]imidazol-5-yl)morpholin-3-one], the IC50 fell in the range of 100 to 1000 nM.

`COc1cc(-c2nc3ccc(N4CCOC4=O)cc3n2C2(C)COC2)c(F)c(O)c1O` [Example 276, 3-(2-(2-fluoro-3,4-dihydroxy-5-methoxyphenyl)-1-(3-methyloxetan-3-yl)-1H-benzo[d]imidazol-6-yl)oxazolidin-2-one]: the IC50 was no more than 100 nM.

`COc1cc(-c2nc3ccc(N4CCOCC4=O)cc3n2C2(C)COC2)c(F)c(O)c1O` [Example 277, 4-(2-(2-fluoro-3,4-dihydroxy-5-methoxyphenyl)-1-(3-methyloxetan-3-yl)-1H-benzo[d]imidazol-6-yl)morpholin-3-one]: the IC50 lay within 1000 to 10000 nM.

For the molecule `COc1cc(-c2nc3cc(N4CCN(C)C(=O)C4)ccc3n2C2(C)COC2)c(F)c(O)c1O` [Example 278, 4-(2-(2-fluoro-3,4-dihydroxy-5-methoxyphenyl)-1-(3-methyloxetan-3-yl)-1H-benzo[d]imidazol-5-yl)-1-methylpiperazin-2-one], the IC50 was no more than 100 nM.

For the molecule `COc1cc(-c2nc3ccc(C(O)C(F)(F)F)cc3n2C2(C)COC2)c(F)c(O)c1O` (stereo not drawn) [Example 280, 3-fluoro-6-methoxy-4-(1-(3-methyloxetan-3-yl)-6-(2,2,2-trifluoro-1-hydroxyethyl)-1H-benzo[d]imidazol-2-yl)benzene-1,2-diol], the IC50 was 100 to 1000 nM.

Regarding `COc1cc(-c2nc3ccc(CO)cc3n2C2(C)COC2)c(F)c(O)c1O` [Example 281, 3-fluoro-4-(6-(hydroxymethyl)-1-(3-methyloxetan-3-yl)-1H-benzo[d]imidazol-2-yl)-6-methoxybenzene-1,2-diol], the IC50 was in the range of 100 to 1000 nM.

Regarding `COc1cc(-c2nc3ccc(N4CCC4)cc3n2C2COC2)c(C)c(O)c1O` [Example 283, 4-(6-(azetidin-1-yl)-1-(oxetan-3-yl)-1H-benzo[d]imidazol-2-yl)-6-methoxy-3-methylbenzene-1,2-diol], the IC50 was in the range of 1000 to 10000 nM.

Turning to `COc1cc(-c2nc3cc(N4CCC4)ccc3n2C2COC2)cc(O)c1O` [Example 284, 5-(5-(azetidin-1-yl)-1-(oxetan-3-yl)-1H-benzo[d]imidazol-2-yl)-3-methoxybenzene-1,2-diol], the IC50 is 1000 to 10000 nM.

`COc1cc(-c2nc3ccc(N4CCC4)cc3n2C2COC2)cc(O)c1O` [Example 285, 5-(6-(azetidin-1-yl)-1-(oxetan-3-yl)-1H-benzo[d]imidazol-2-yl)-3-methoxybenzene-1,2-diol]: the IC50 is 1000 to 10000 nM.

Regarding `COc1cc(-c2nc3ccc(N4CCOCC4)cc3n2C2CCOC2)c(C)c(O)c1O` (stereo not drawn) [Example 286, 6-methoxy-3-methyl-4-(6-morpholino-1-(tetrahydrofuran-3-yl)-1H-benzo[d]imidazol-2-yl)benzene-1,2-diol], the IC50 was in the range of 1000 to 10000 nM.

`COc1cc(-c2nc3nc(N4CCOCC4)ccc3n2C2CCOC2)cc(O)c1O` (stereo not drawn) [Example 287, 3-methoxy-5-(5-morpholino-1-(tetrahydrofuran-3-yl)-1H-imidazo[4,5-b]pyridin-2-yl)benzene-1,2-diol]: the IC50 is greater than 100000 nM.

On to `COc1cc(-c2nc3ccc(N4CCC4)cc3n2C2COC2)c(F)c(O)c1O` [Example 288, 4-(6-(azetidin-1-yl)-1-(oxetan-3-yl)-1H-benzo[d]imidazol-2-yl)-3-fluoro-6-methoxybenzene-1,2-diol], for which the IC50 lay within 1000 to 10000 nM.

With `COc1cc(-c2nc3cc(-c4ccccn4)ccc3[nH]2)c(C)c(O)c1O` [Example 289, 6-methoxy-3-methyl-4-[5-(pyridin-2-yl)-1H-1,3-benzodiazol-2-yl]benzene-1,2-diol], the IC50 was in the range of 1000 to 10000 nM.

In the case of `Cc1c(-c2nc3ccccc3n2C2CCC2)cc(OC(C)C)c(O)c1O` [Example 290, 4-(1-cyclobutyl-1H-1,3-benzodiazol-2-yl)-3-methyl-6-(propan-2-yloxy)benzene-1,2-diol], the IC50 was in the range of 10000 to 100000 nM.

Turning to `COc1cc(-c2nc3ccccc3n2C23CC(C2)C3)c(C)c(O)c1O` [Example 291, 4-(1-(bicyclo[1.1.1]pentan-1-yl)-1H-benzo[d]imidazol-2-yl)-6-methoxy-3-methylbenzene-1,2-diol], the IC50 was in the range of 100 to 1000 nM.

Take `COc1cc(-c2nc3nc(N4CCC4)ccc3n2C2CCOC2)cc(O)c1O` (stereo not drawn) [Example 292, 5-(5-(azetidin-1-yl)-1-(tetrahydrofuran-3-yl)-1H-imidazo[4,5-b]pyridin-2-yl)-3-methoxybenzene-1,2-diol]: the IC50 is 10000 to 100000 nM.

As to `COc1cc(-c2nc3cc(N4CCC4)cc(C)c3[nH]2)cc(O)c1O` [Example 293, 5-(5-(azetidin-1-yl)-7-methyl-1H-benzo[d]imidazol-2-yl)-3-methoxybenzene-1,2-diol], the IC50 is greater than 100000 nM.

As for `COc1cc(-c2nc3cc(N4CC(O)C4)ccc3n2C2COC2)c(F)c(O)c1O` [Example 294, 3-fluoro-4-(5-(3-hydroxyazetidin-1-yl)-1-(oxetan-3-yl)-1H-benzo[d]imidazol-2-yl)-6-methoxybenzene-1,2-diol], the IC50 lay in the range of 1000 to 10000 nM.

For `COc1cc(-c2nc3ccc(-c4ccn[nH]4)cc3n2C2(C)COC2)c(F)c(O)c1O` [Example 295, 3-fluoro-6-methoxy-4-(1-(3-methyloxetan-3-yl)-6-(1H-pyrazol-5-yl)-1H-benzo[d]imidazol-2-yl)benzene-1,2-diol], the IC50 is no more than 100 nM.

Turning to `COc1cc(-c2nc3ccc(-c4ncco4)cc3n2C2(C)COC2)c(F)c(O)c1O` [Example 296, 3-fluoro-6-methoxy-4-(1-(3-methyloxetan-3-yl)-6-(oxazol-2-yl)-1H-benzo[d]imidazol-2-yl)benzene-1,2-diol], the IC50 was no more than 100 nM.

Consider `COc1c(C)c(-c2nc3ccccc3n2C2CCC2)c(F)c(O)c1O` [Example 297, 4-(1-cyclobutyl-1H-benzo[d]imidazol-2-yl)-3-fluoro-6-methoxy-5-methylbenzene-1,2-diol], for which the IC50 lay within 10000 to 100000 nM.

On to `COc1c(O)c(O)cc(-c2nc3cc(N4CCC4)ccc3n2C2COC2)c1F` [Example 298, 5-(5-(azetidin-1-yl)-1-(oxetan-3-yl)-1H-benzo[d]imidazol-2-yl)-4-fluoro-3-methoxybenzene-1,2-diol], for which the IC50 lay within 1000 to 10000 nM.

For the molecule `COc1c(C)c(-c2nc3cc(N4CCC4)ccc3n2C2CCC2)cc(O)c1O` [Example 299, 5-(5-(azetidin-1-yl)-1-cyclobutyl-1H-benzo[d]imidazol-2-yl)-3-methoxy-4-methylbenzene-1,2-diol], the IC50 was 10000 to 100000 nM.

In the case of `COc1cc(-c2nc3cc(Cl)c(Cl)cc3[nH]2)c(F)c(O)c1O` [Example 300, 4-(5,6-dichloro-1H-benzo[d]imidazol-2-yl)-3-fluoro-6-methoxybenzene-1,2-diol], the IC50 lay within 10000 to 100000 nM.

Take `COc1cc(-c2nc3c(Cl)c(Cl)ccc3n2C2(C)COC2)cc(O)c1O` [Example 301, 5-(4,5-dichloro-1-(3-methyloxetan-3-yl)-1H-benzo[d]imidazol-2-yl)-3-methoxybenzene-1,2-diol]: the IC50 was in the range of 100 to 1000 nM.

On to `COc1cc(-c2nc3cc(Cl)c(Cl)cc3n2C2(C)COC2)cc(O)c1O` [Example 302, 5-(5,6-dichloro-1-(3-methyloxetan-3-yl)-1H-benzo[d]imidazol-2-yl)-3-methoxybenzene-1,2-diol], for which the IC50 is 100 to 1000 nM.

Regarding `COc1cc(-c2nc3cc(NC(=O)c4ccccc4)ccc3n2C2(C)COC2)c(F)c(O)c1O` [Example 303, N-(2-(2-fluoro-3,4-dihydroxy-5-methoxyphenyl)-1-(3-methyloxetan-3-yl)-1H-benzo[d]imidazol-5-yl)benzamide], the IC50 is no more than 100 nM.

In the case of `COc1cc(-c2nc3cc(NC(=O)c4cccnc4)ccc3n2C2(C)COC2)c(F)c(O)c1O` [Example 304, N-(2-(2-fluoro-3,4-dihydroxy-5-methoxyphenyl)-1-(3-methyloxetan-3-yl)-1H-benzo[d]imidazol-5-yl)nicotinamide], the IC50 was 100 to 1000 nM.

Take `COc1cc(-c2nc3ccc(NC(=O)c4ccc(F)cc4)cc3n2C2(C)COC2)c(F)c(O)c1O` [Example 305, 4-fluoro-N-(2-(2-fluoro-3,4-dihydroxy-5-methoxyphenyl)-1-(3-methyloxetan-3-yl)-1H-benzo[d]imidazol-6-yl)benzamide]: the IC50 is no more than 100 nM.

For `COc1cc(-c2nc3cc(NC(=O)c4ccncc4)ccc3n2C2(C)COC2)c(F)c(O)c1O` [Example 306, N-(2-(2-fluoro-3,4-dihydroxy-5-methoxyphenyl)-1-(3-methyloxetan-3-yl)-1H-benzo[d]imidazol-5-yl)isonicotinamide], the IC50 is no more than 100 nM.

Regarding `COc1cc(-c2nc3ccc(C(=O)NC4CS(=O)(=O)C4)cc3n2C2(C)COC2)c(F)c(O)c1O` [Example 307, N-(1,1-dioxidothietan-3-yl)-2-(2-fluoro-3,4-dihydroxy-5-methoxyphenyl)-1-(3-methyloxetan-3-yl)-1H-benzo[d]imidazole-6-carboxamide], the IC50 is no more than 100 nM.

For the molecule `CNC(=O)c1ccc2c(c1)nc(-c1cc(OC)c(O)c(O)c1F)n2C1(C)COC1` [Example 308, 2-(2-fluoro-3,4-dihydroxy-5-methoxyphenyl)-N-methyl-1-(3-methyloxetan-3-yl)-1H-benzo[d]imidazole-5-carboxamide], the IC50 lay within 100 to 1000 nM.

Turning to `CNC(=O)c1ccc2nc(-c3cc(OC)c(O)c(O)c3F)n(C3CCC3)c2c1` [Example 309, 1-cyclobutyl-2-(2-fluoro-3,4-dihydroxy-5-methoxyphenyl)-N-methyl-1H-benzo[d]imidazole-6-carboxamide], the IC50 was no more than 100 nM.
